Laboratory results taken from patent publication US8685992B2, “Histone deacetylase inhibitors based simultaneously on trisubstituted 1H-pyrroles and aromatic and heteroaromatic spacers” (Universidad del País Vasco, priority 2009, dated 2014).

How the values were obtained:
Human HDAC8 = Human HDAC8 (Homo sapiens (Human), UniProt Q9BY41); experiment: HDAC8 fluorogenic peptide deacetylation assay; format: biochemical; settings: human HDAC8, 50 μM substrate, 30° C., 2 h; read-out: IC50 (nM) of enzyme activity HDAC8
Chain of Human HDAC8 (Q9BY41 whole entry): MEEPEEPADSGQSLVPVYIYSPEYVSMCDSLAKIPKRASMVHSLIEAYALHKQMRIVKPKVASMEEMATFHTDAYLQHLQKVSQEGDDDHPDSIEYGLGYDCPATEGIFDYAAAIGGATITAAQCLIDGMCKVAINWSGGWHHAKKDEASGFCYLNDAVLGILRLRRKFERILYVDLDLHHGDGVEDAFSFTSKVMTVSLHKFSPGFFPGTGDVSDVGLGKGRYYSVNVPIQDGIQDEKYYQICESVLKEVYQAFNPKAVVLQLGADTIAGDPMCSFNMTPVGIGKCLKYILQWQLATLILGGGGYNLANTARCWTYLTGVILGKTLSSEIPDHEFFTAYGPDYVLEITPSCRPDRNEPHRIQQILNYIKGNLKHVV

[1] = test system: Nuclear Extract from HeLa Cells; experiment: HeLa Nuclear Extract HDAC assay; format: biochemical, human; settings: 50 μM substrate, 30° C., 2 h, read-out: IC50 (nM) of enzyme activity HeLa
MCF-7-218 = experiment: Cancer cell growth inhibition, MCF-7-218; format: cell-based; settings: Homo sapiens; MCF-7-218, Breast Cancer, 72 h treatment
Protocol: (§1) Cell culture-based assays were used to evaluate the ability of compounds of the invention to inhibit cancer cell growth inhibition.
(§2) Cells were obtained from the American Type Culture Collection (ATCC). Cells were cultured at 37° C. with 5% CO2 in the appropriate growth medium (see table below), and harvested respectively during the logarithmic growth period and counted with hemocytometer. The cell viability was over 98% by trypan blue exclusion. Cell concentrations were adjusted between 5×10^4 and 2×10^5 cells/ml with respective medium.
(§3) Stock solutions of test compounds and positive drugs Doxorubicin (Zhejiang, Haizheng, China), Paclitaxel (Beijing, Xiehe, China), Vincristin (Shenzhen Wanle, China), 5-FU (Tianjin jinyaoanjisuan, China), Irinotecan (Jiangsu Hengrui, China) and Cisplatin Nanjing zhiyao, China) were prepared in dimethyl sulphoxide (DMSO) or PBS at 20 mM.
(§4) All treatments were performed in triplicate. 10 μl drug solution was added to each well and incubated for 72 hours. At the end of the incubation, 20 μl of the freshly prepared MTS/PMS mixture solution was added to each well and incubated for 4 hours at 37° C. in a humidified, 5% CO2 atmosphere. Absorbance was read at 490 nm using SpectraMAX Plus microplate spectrophotometer. […] In order to calculate IC50, a dose-responsive curve was fitted using nonlinear regression model with a sigmoidal dose response.

MCF-7-FL = experiment: Cancer cell growth inhibition, MCF-7-FL; format: cell-based; settings: Homo sapiens, Breast Cancer, 72 h treatment
Protocol: as §1, §2, §3, §4

DU145 = experiment: Cancer cell growth inhibition, DU145; format: cell-based, human; settings: Homo sapiens, DU-145; DU145, Prostate Cancer, 72 h treatment
Protocol: as §1, §2, §3, §4

LNCaP = experiment: Cancer cell growth inhibition, LNCaP; format: cell-based, human; settings: Homo sapiens, Prostate Cancer, 72 h treatment
Protocol: as §1, §2, §3, §4

HCT-116 = experiment: Cancer cell growth inhibition, HCT-116; format: cell-based, human; settings: Homo sapiens; HCT-116, Colorectal Cancer, 72 h treatment
Protocol: as §1, §2, §3, §4

HT-29 = experiment: Cancer cell growth inhibition, HT-29; format: cell-based, human; settings: Homo sapiens; HT-29, Colorectal Cancer, 72 h treatment
Protocol: as §1, §2, §3, §4

LoVo = experiment: Cancer cell growth inhibition, LoVo; format: cell-based, human; settings: Homo sapiens, Colorectal Cancer, 72 h treatment
Protocol: as §1, §2, §3, §4

SW620 = experiment: Cancer cell growth inhibition, SW620; format: cell-based, human; settings: Homo sapiens, SW-620; SW620, Colorectal Cancer, 72 h treatment
Protocol: as §1, §2, §3, §4

NCI-H226 = experiment: Cancer cell growth inhibition, NCI-H226; format: cell-based, human; settings: Homo sapiens; NCI-H226, Lung Cancer, 72 h treatment
Protocol: as §1, §2, §3, §4

HT-1080 = experiment: Cancer cell growth inhibition, HT-1080; format: cell-based; settings: Homo sapiens; HT-1080, Fibrosarcoma, 72 h treatment
Protocol: as §1, §2, §3, §4

MIAPACA-2 = experiment: Cancer cell growth inhibition, MIAPACA-2; format: cell-based, human; settings: Homo sapiens, MIA PaCa-2; MIAPACA-2, Pancreatic Cancer, 72 h treatment
Protocol: as §1, §2, §3, §4

Bx-PC-3 = experiment: Cancer cell growth inhibition, Bx-PC-3; format: cell-based, human; settings: Homo sapiens, BXPC-3; Bx-PC-3, Pancreatic Cancer, 72 h treatment
Protocol: as §1, §2, §3, §4

HepG2 = experiment: Cancer cell growth inhibition, HepG2; format: cell-based, human; settings: Homo sapiens; HepG2, Liver Cancer, 72 h treatment
Protocol: as §1, §2, §3, §4

SK-MEL-5 = experiment: Cancer cell growth inhibition, SK-MEL-5; format: cell-based, human; settings: Homo sapiens; SK-MEL-5, Melanoma, 72 h treatment
Protocol: as §1, §2, §3, §4

MCG803 = experiment: Cancer cell growth inhibition, MCG803; format: cell-based, human; settings: Homo sapiens; MCG803, Gastric Cancer, 72 h treatment
Protocol: as §1, §2, §3, §4

OVCAR3 = experiment: Cancer cell growth inhibition, OVCAR3; format: cell-based, human; settings: Homo sapiens, OVCAR-3; OVCAR3, Ovarian Cancer, 72 h treatment
Protocol: as §1, §2, §3, §4

K562 = experiment: Cancer cell growth inhibition, K562; format: cell-based, human; settings: Homo sapiens; K562, CML, 72 h treatment
Protocol: as §1
as §2, with “The cell viability was over 98% by trypan blue exclusion.” left out
as §3, §4

KB = experiment: Cancer cell growth inhibition, KB; format: cell-based, human; settings: Homo sapiens, Oral Cancer, 72 h treatment
Protocol: as §1, §2, §3, §4

RPMI-8226 = experiment: Cancer cell growth inhibition, RPMI-8226; format: cell-based, human; settings: Homo sapiens; RPMI-8226, Orthotopic Multiple Myeloma, 72 h treatment
Protocol: as §1, §2, §3, §4

Human HDAC4 = Human HDAC4 (Homo sapiens (Human), UniProt P56524); experiment: HDAC4 fluorogenic peptide deacetylation assay; format: biochemical; settings: human HDAC4, 50 μM substrate, 30° C., 2 h; read-out: IC50 (nM) of enzyme activity HDAC4
Chain of Human HDAC4 (P56524 627-1084 limits assumed): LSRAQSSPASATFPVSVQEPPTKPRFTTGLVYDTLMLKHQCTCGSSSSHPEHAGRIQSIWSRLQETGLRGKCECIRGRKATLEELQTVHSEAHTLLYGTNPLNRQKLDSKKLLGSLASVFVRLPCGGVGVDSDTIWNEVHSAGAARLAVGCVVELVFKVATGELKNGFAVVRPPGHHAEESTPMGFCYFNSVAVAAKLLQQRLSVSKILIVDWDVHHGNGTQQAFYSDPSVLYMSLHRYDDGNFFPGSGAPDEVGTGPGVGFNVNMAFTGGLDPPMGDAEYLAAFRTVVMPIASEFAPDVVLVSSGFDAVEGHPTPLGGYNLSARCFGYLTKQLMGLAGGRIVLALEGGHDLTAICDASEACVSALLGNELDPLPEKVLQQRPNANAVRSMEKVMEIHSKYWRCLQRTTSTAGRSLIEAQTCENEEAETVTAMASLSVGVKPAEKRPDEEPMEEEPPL

Human HDAC9 = Human HDAC9 (Homo sapiens (Human), UniProt Q9UKV0); experiment: HDAC9 fluorogenic peptide deacetylation assay; format: biochemical; settings: human HDAC9, 50 μM substrate, 30° C., 2 h; read-out: IC50 (nM) of enzyme activity HDAC9
Chain of Human HDAC9 (Q9UKV0 other isoform, or with tags, fused parts or gaps): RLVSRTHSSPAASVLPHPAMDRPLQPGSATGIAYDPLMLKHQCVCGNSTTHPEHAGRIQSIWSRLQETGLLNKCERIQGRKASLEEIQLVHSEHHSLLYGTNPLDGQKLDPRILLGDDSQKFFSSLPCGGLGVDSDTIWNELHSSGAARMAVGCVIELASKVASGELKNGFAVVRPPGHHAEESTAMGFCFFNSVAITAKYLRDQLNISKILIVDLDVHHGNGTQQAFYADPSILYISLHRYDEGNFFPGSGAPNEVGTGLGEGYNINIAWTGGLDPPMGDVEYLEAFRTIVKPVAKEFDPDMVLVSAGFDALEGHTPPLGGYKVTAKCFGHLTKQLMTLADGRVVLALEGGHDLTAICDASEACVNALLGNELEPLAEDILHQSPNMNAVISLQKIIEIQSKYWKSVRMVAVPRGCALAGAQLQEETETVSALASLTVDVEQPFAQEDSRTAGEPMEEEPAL

Human HDAC10 = Human HDAC10 (Homo sapiens (Human), UniProt Q969S8); experiment: HDAC10 fluorogenic peptide deacetylation assay; format: biochemical; settings: human HDAC10, 50 μM substrate, 30° C., 2 h; read-out: IC50 (nM) of enzyme activity HDAC10
Chain of Human HDAC10 (Q969S8 1-631): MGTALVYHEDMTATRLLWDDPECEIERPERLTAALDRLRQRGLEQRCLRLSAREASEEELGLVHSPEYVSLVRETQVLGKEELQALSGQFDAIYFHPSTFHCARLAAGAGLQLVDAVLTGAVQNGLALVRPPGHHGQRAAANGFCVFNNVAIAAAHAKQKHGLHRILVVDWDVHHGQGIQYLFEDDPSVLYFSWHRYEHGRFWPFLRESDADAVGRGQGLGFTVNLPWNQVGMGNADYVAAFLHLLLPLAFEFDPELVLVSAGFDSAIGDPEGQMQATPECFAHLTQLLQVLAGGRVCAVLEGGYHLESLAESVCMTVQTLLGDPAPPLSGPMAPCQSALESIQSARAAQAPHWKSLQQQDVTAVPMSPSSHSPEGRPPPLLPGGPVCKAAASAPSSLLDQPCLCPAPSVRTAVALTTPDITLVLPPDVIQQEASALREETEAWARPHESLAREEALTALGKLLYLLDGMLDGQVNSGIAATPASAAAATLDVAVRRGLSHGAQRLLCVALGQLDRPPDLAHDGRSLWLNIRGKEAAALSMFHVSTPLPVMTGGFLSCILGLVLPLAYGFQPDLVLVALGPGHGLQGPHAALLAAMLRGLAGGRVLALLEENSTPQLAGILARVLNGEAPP

SW480 = experiment: Cancer cell growth inhibition, SW480; format: cell-based, human; settings: Homo sapiens; SW480, Colorectal Cancer, 72 h treatment
Protocol: as §1, §2, §3, §4

NCI-N87 = experiment: Cancer cell growth inhibition, NCI-N87; format: cell-based, human; settings: Homo sapiens; NCI-N87, Gastric Cancer, 72 h treatment
Protocol: as §1, §2, §3, §4

SMILES | IC50 (Human HDAC8) | IC50 [1] | IC50 (DU145) | IC50 (LNCaP) | IC50 (HCT-116) | IC50 (HT-29) | IC50 (LoVo) | IC50 (SW620) | IC50 (NCI-H226) | IC50 (HT-1080) | IC50 (MIAPACA-2) | IC50 (Bx-PC-3) | IC50 (HepG2) | IC50 (SK-MEL-5) | IC50 (MCG803) | IC50 (OVCAR3) | IC50 (K562) | IC50 (KB) | IC50 (RPMI-8226) | IC50 (Human HDAC4) | also measured
O=C(NO)c1ccc(CNC(=O)c2[nH]c(-c3ccc(O)cc3)cc2-c2ccsc2)cc1 [Example 14, N-{4-[(hydroxyamino)carbonyl]benzyl}-5-(4-hydroxyphenyl)-3-(3-thienyl)-1H-pyrrole-2-carboxamide] | 64.1 nM | 6.7 nM | 1.52 µM | 4.11 µM | 0.0804 µM | 5.78 µM | 0.498 µM | 1.53 µM | 21.3 µM | 1.53 µM | 0.428 µM | 6.83 µM | 2.01 µM | 0.851 µM | 3.27 µM | 25.2 µM | 1.3 µM | 0.702 µM | 0.336 µM | 956 nM | IC50 (Human HDAC9): 277 nM; IC50 (Human HDAC10): 316 nM; IC50 (MCF-7-218): 37.6 µM; IC50 (MCF-7-FL): 6.64 µM; melting point: 121 to 122 °C
COc1ccc(-c2cc(-c3ccoc3)c(C(=O)NCc3ccc(C(=O)NO)cc3)[nH]2)cc1 [Example 27, 3-(3-furyl)-N-{4-[(hydroxyamino)carbonyl]benzyl}-5-(4-methoxyphenyl)-1H-pyrrole-2-carboxamide] | 148 nM | 3.9 nM | 0.339 µM | 0.366 µM | 0.416 µM | 1.01 µM | 0.43 µM | 0.377 µM | 1.77 µM | 0.161 µM | 0.881 µM | 0.775 µM | 0.498 µM | 0.256 µM | 0.738 µM | 0.904 µM |  | 0.315 µM | 0.0586 µM | 1080 nM | IC50 (Human HDAC9): 163 nM; IC50 (SW480): 0.574 µM; IC50 (NCI-N87): 0.153 µM
COc1ccc(-c2cc(-c3ccsc3)c(C(=O)NCc3ccc(C(=O)NO)cc3)[nH]2)cc1 [Example 28, N-{4-[(hydroxyamino)carbonyl]benzyl}-5-(4-methoxyphenyl)-3-(3-thienyl)-1H-pyrrole-2-carboxamide] | 174 nM | 22 nM | 1.86 µM | 3.07 µM | 1.46 µM | 25.9 µM | 3.85 µM | 2 µM | 12.6 µM | 1.09 µM | 7.52 µM | 8.28 µM | 1.77 µM | 3.79 µM | 6.08 µM | 4.76 µM | 1.37 µM | 3.43 µM | 0.462 µM | 2430 nM | IC50 (Human HDAC9): 478 nM; IC50 (Human HDAC10): 723 nM; IC50 (SW480): 2.38 µM; IC50 (NCI-N87): 1.48 µM

Continued, in another order:

IC50 (Human HDAC8) | IC50 [1] | IC50 (DU145) | IC50 (LNCaP) | IC50 (HCT-116) | IC50 (HT-29) | IC50 (LoVo) | IC50 (SW620) | IC50 (NCI-H226) | IC50 (HT-1080) | IC50 (MIAPACA-2) | IC50 (Bx-PC-3) | IC50 (HepG2) | IC50 (SK-MEL-5) | IC50 (MCG803) | IC50 (OVCAR3) | IC50 (K562) | IC50 (KB) | IC50 (RPMI-8226) | IC50 (Human HDAC4) | SMILES | also measured
227 nM | 26 nM | 4.51 µM | 9.91 µM | 1.99 µM | 10.7 µM | 1.91 µM | 1.82 µM | 11.9 µM | 1.84 µM | 2.81 µM | 7.73 µM | 5.01 µM | 3.33 µM | 1.1 µM | 9.99 µM | 1.04 µM | 2.96 µM | 1.31 µM |  | O=C(NO)c1ccc(CNC(=O)c2[nH]c(-c3ccoc3)cc2-c2ccc(O)cc2)cc1 [Example 9, 5-(3-furyl)-N-{4-[(hydroxyamino)carbonyl]benzyl}-3-(4-hydroxyphenyl)-1H-pyrrole-2-carboxamide] | IC50 (MCF-7-218): 12.8 µM; IC50 (MCF-7-FL): 7.72 µM
74.8 nM | 3.4 nM | 0.46 µM | 1.72 µM | 0.082 µM | 2.29 µM | 0.15 µM | 0.334 µM | 3.05 µM | 0.594 µM | 0.27 µM | 2.25 µM | 2.28 µM | 0.292 µM | 2.01 µM | 8.05 µM | 0.739 µM | 0.184 µM | 0.426 µM | 338 nM | O=C(NO)c1ccc(CNC(=O)c2[nH]c(-c3ccc(O)cc3)cc2-c2ccoc2)cc1 [Example 15, 3-(3-furyl)-N-{4-[(hydroxyamino)carbonyl]benzyl}-5-(4-hydroxyphenyl)-1H-pyrrole-2-carboxamide] | IC50 (Human HDAC9): 59 nM; IC50 (Human HDAC10): 35 nM; IC50 (MCF-7-218): 26.5 µM; IC50 (MCF-7-FL): 3.31 µM
